Where two headings read alike, the source gives them in different places.
Molecular target: T1, CIB1 and αIIb interaction (CIB1-GST : F-αIIb peptide) (Homo sapiens, UniProt Q99828)
T1 construct: made in house; host or cells: BL-21 plus RIL cells (E. coli)
T1 sequence (Q99828 1-191): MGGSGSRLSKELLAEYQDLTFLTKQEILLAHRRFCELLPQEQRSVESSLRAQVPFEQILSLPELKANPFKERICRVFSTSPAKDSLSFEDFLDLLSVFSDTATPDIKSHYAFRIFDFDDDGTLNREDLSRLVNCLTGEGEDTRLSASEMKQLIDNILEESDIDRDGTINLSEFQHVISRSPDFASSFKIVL
Assay: FP assay, 1536-well qHTS format (primary and confirmatory screen)
Format: binding
Settings: for Efficacy (%): negative = inhibition; for IC50: read-out: IC50; for Curve Class: negative sign = inhibitory curve

[1] = qHTS primary screen of LOPAC/NPACT libraries
[2] = qHTS primary screen hits, Table S2
[3] = qHTS primary screen hits, Table S2, several classes where COUNT > 1

Compound	Efficacy (%) [2]	IC50 [2]	Curve Class [3]	other results
CCOC(=O)Nc1ccc(NCc2ccc(F)cc2)nc1N.O=C(O)/C=C\C(=O)O [NCGC00015451-04]	–	–	–	Efficacy (%) [1]: -53%; IC50 [1]: 39.8 µM
CCN(CC)C(=S)SSC(=S)N(CC)CC [NCGC00016000-10]	-67%	35.8 µM	–	–
CC(=O)NC(c1ccco1)c1cc(Cl)c2ccc(N(C)C)nc2c1O (stereo not shown) [NCGC00183714-01]	-39%	50.1 µM	-2.2	–
CCC(C)CC(=O)OC1C(=O)C(CO)=CC(O)C1C(C)C (stereo not shown) [NCGC00381331-01]	–	–	–	Efficacy (%) [1]: -22%; Curve Class [1]: -2.4; IC50 [1]: 56.2 µM
Oc1cccc(C2=C3C=CC(=N3)C(c3cccc(O)c3)=C3C=CC(=N3)C(c3cccc(O)c3)=C3CCC(=N3)C(c3cccc(O)c3)=C3C=CC2=N3)c1 [NCGC00183015-01]	-29%	50.1 µM	-2.4	–
Ic1ccccc1CNC1C2CCN(CC2)C1C(c1ccccc1)c1ccccc1.O=C(O)C(=O)O (stereo not shown) [NCGC00015587-03]	–	–	–	Efficacy (%) [1]: -20%; Curve Class [1]: -3; IC50 [1]: 63.1 µM
COCc1ccc(-c2nn(Cc3ccccc3)c3ccccc23)o1 [NCGC00479273-01]	-37%	56.2 µM	-2.4	–
COc1ccc(C2CC(=O)Nc3nc(N4CCOCC4)sc32)c(OC)c1.O=C(O)C(F)(F)F (stereo not shown) [NCGC00488259-02]	-59%	56.2 µM	-2.4	–
C=CC(=O)Nc1cccc(Nc2nc(Nc3ccc(OCCOC)cc3)ncc2F)c1 [NCGC00386306-06]	–	–	–	Efficacy (%) [1]: -22%; Curve Class [1]: -1.4; IC50 [1]: 10 µM
Cc1ccc(C)n1-c1ccc(C(=O)O)cc1.O=C(O)C(F)(F)F [NCGC00273552-01]	-38%	44.7 µM	-2.2	–
Cl.Oc1ccc([C@H]2CNCc3c2ccc(O)c3O)cc1O [NCGC00183049-01]	-93%	89.1 µM	–	Curve Class [2]: -3
Cc1ccc(NS(=O)(=O)c2cc(Br)cc3c2NC(=O)CC3)cc1Cl.O=C(O)C(F)(F)F [NCGC00242331-01]	-33%	50.1 µM	–	Curve Class [2]: -2.2
COc1cccc2c1C(=O)c1c(O)c3c(c(O)c1C2=O)C[C@@](O)(C(C)=O)C[C@@H]3O[C@H]1C[C@H](N)[C@H](O)[C@H](C)O1 [NCGC00024246-15]	-61%	15.2 µM	–	–
CCOC(=O)c1nnc(NS(=O)(=O)c2ccc(NC(=O)Cc3ccc(Cl)c(Cl)c3)cc2)s1.O=C(O)C(F)(F)F [NCGC00248354-02]	-28%	31.4 µM	–	–
O=C(Nc1ccc(S(=O)(=O)N2CCOCC2)cc1)c1cc(Cl)ccc1NS(=O)(=O)c1ccc(Cl)s1 [NCGC00249417-02]	–	–	–	Efficacy (%) (qHTS FP screen hits, Table S2): -34%; IC50 (qHTS FP screen hits, Table S2): 40.9 µM
CCOc1cc(C(C)(C)C)ccc1C1=N[C@@](C)(c2ccc(Cl)cc2)[C@@](C)(c2ccc(Cl)cc2)N1C(=O)N1CCN(CC(=O)N2CCOCC2)CC1 [NCGC00378588-02]	-29%	49.1 µM	-2.4	–
O=S1(=O)OC(c2ccc(O)cc2)(c2ccc(O)cc2)c2ccccc21 [NCGC00013109-03]	-72%	44.7 µM	–	Curve Class [2]: -2.4
COc1ccc(NC(=O)c2ccc(-c3ccc(-c4noc(C)n4)cc3C)cc2)cc1N1CCN(C)CC1.Cl [NCGC00015476-05]	–	–	–	Efficacy (%) [1]: -19%; Curve Class [1]: -2.2; IC50 [1]: 17.8 µM
Nc1nc2c(s1)C(c1ccccc1Cl)CC(O)=N2 (stereo not shown) [NCGC00284018-04]	-37%	53.2 µM	–	Curve Class [2]: -2.4
Cc1ccc(S(=O)(=O)Nc2ccc(OC(F)(F)F)cc2C(=O)Nc2nc(-c3ccccc3)cs2)cc1.O=C(O)C(F)(F)F [NCGC00262991-01]	-27%	44.7 µM	–	Curve Class [2]: -2.4
CN(C)c1ccc(NC(=O)NS(=O)(=O)c2ccc(Cl)cc2)cc1 [NCGC00485899-01]	–	–	–	Efficacy (%) [1]: -32%; Curve Class [1]: -2.4; IC50 [1]: 50.1 µM

Compound	Efficacy (%) [2]	IC50 [2]	Curve Class [3]	other results
CN(C)c1ccc(C(=C2C=CC(=[N+](C)C)C=C2)c2ccc(N(C)C)cc2)cc1.[Cl-] [NCGC00091112-09]	-60%	56.2 µM	–	Curve Class [2]: -2.4
O=C(NCc1ccc(Oc2ccccc2)cc1)c1nc(-c2cc(Br)c(O)c(Br)c2)no1 [NCGC00386303-01]	–	–	–	Efficacy (%) [1]: -24%; Curve Class [1]: -1.4; IC50 [1]: 17.8 µM
O=C(O)C(F)(F)F.O=c1[nH]c2ccccc2n1C1CCN(CCCC(c2ccc(F)cc2)c2ccc(F)cc2)CC1 [NCGC00015802-18]	-216%	89.1 µM	–	Curve Class [2]: -3
O.O=C(O)[C@@H]1[C@H]2C[C@H]3c4[nH]c5ccccc5c4CCN3C[C@@H]2CC[C@@H]1O [NCGC00178432-05]	-32%	44.7 µM	-2.4	–
CCCc1c(O)c(O)c(C(=O)O)c2cc(Cc3ccccc3)c(C)cc12 [NCGC00249596-02]	-48%	44.7 µM	-2.2	–
C=CCn1c(=O)c2c(nc(-c3ccc(S(=O)(=O)O)cc3)n2C)n(C)c1=O [NCGC00015008-05]	–	–	–	Efficacy (%) [1]: -20%; Curve Class [1]: -2.2; IC50 [1]: 25.1 µM
N#Cc1cc2nc([O-])c([O-])nc2cc1[N+](=O)[O-].[Na+].[Na+] [NCGC00015198-04]	-48%	35.5 µM	–	Curve Class [2]: -2.2
CO/N=C(/C(=O)N[C@@H]1C(=O)N2C(C(=O)[O-])=C(C[n+]3ccn4ncccc43)CS[C@H]12)c1nsc(N)n1 [NCGC00181750-01]	-60%	56.2 µM	-2.4	–
CC[C@@H](CO)NC(=O)[C@@H]1C=C2c3cccc4c3c(cn4C)C[C@H]2N(C)C1 [NCGC00024027-09]	–	–	–	Efficacy (%) (qHTS FP screen hits, Table S2): -89%; Curve Class (qHTS FP screen hits, Table S2, one class per curve where COUNT > 1): -2.2; IC50 (qHTS FP screen hits, Table S2): 44.7 µM
O=C1NC(=O)/C(=C/c2ccc3c(c2)OC(F)(F)O3)S1 [NCGC00261190-01]	-33%	17.8 µM	–	Curve Class [2]: -1.2
O=c1onc2cnc3ccccc3n12 [NCGC00015770-05]	–	–	–	Efficacy (%) [1]: -21%; Curve Class [1]: -2.4; IC50 [1]: 56.2 µM
CC/C(=C(/CC)c1ccc(O)cc1)c1ccc(O)cc1 [NCGC00090749-11]	-29%	42.9 µM	-2.4	–
CC(C)(C)CNc1ncnc2ccc(-c3ccc(CO)o3)cc12.O=C(O)C(F)(F)F [NCGC00238375-01]	-42%	50.1 µM	-2.2	–
Cl.O=c1c2ccccc2nc2sc(Nc3cccc(N4CCNCC4)c3)nn12 [NCGC00187809-01]	-32%	44.7 µM	-2.4	–
Cl.O=C(O)c1csc(-n2nc(-c3ccc(F)c(F)c3)c(Cc3ccccc3)c2O)n1 [NCGC00356264-02]	-25%	79.4 µM	-2.4	–
Cl.O=c1cc(CN2CCOCC2)occ1OCCCCCSc1ccnc2cc(C(F)(F)F)ccc12 [NCGC00188866-05]	–	–	–	Efficacy (%) [1]: -26%; Curve Class [1]: -2.4; IC50 [1]: 39.8 µM
Oc1cc(Cl)ccc1Oc1ccc(Cl)cc1Cl [NCGC00159417-06]	-22%	100 µM	–	Curve Class [2]: -2.4
Cc1cc(C2N=C(Nc3nc4ccccc4o3)NC3=C2C(=O)CCC3)n[nH]1.O=C(O)C(F)(F)F (stereo not shown) [NCGC00229726-01]	-26%	56.2 µM	-2.4	–
CC/C(=C(\c1ccc(O)cc1)c1ccc(OCCNC)cc1)c1ccccc1 [NCGC00386714-01]	–	–	–	Efficacy (%) [1]: -33%; Curve Class [1]: -2.4; IC50 [1]: 79.4 µM
CC(C)c1ccc2c(c1)c(SC(C)(C)C)c(CC(C)(C)C(=O)O)n2Cc1ccc(Cl)cc1 [NCGC00162249-03]	–	–	–	Efficacy (%) [1]: -29%; Curve Class [1]: -1.4; IC50 [1]: 15.8 µM

Source: publication PMC11249646, “Small-Molecule Disruptors of the Interaction between Calcium- and Integrin-Binding Protein 1 and Integrin αIIbβ3 as Novel Antiplatelet Agents” (ACS Pharmacology & Translational Science, 2024)
